For 10 compounds, logD results are on record in the SangsterLogP compilation.

A short description of the data set: method code SF-HPLC, from DOI: 10.1002/(sici)1521-3838(199911)18:5<482::aid-qsar482>3.0.co;2-r. The conditions noted are these: pH 6.4.

For the compound `O=[N+]([O-])c1ccc2c(ccn2Cc2n[nH]c(=S)n2-c2ccccc2)c1`, the logD – broadly, lipophilicity at a set pH, counting ionised and neutral species – was determined as 2.65. With `Cc1ccc(-n2c(Cn3ccc4ccccc43)n[nH]c2=S)cc1` the figure was 3.2. With `Cc1ccc(-n2c(Cc3c(C)[nH]c4ccccc34)n[nH]c2=S)cc1` the figure was 3; with `Cc1[nH]c2ccccc2c1Cc1nnc(Nc2ccccc2)s1`, 3.11; with `Cc1ccc(Nc2nnc(Cn3ccc4ccccc43)s2)cc1`, 3.99. As to `Cc1[nH]c2ccccc2c1Cc1n[nH]c(=S)n1-c1ccccc1`, the logD was 2.55. The same measure for `S=c1[nH]nc(Cn2ccc3cc(Br)ccc32)n1-c1cccc2ccccc12`: 3.88; for `Cc1ccc(-n2c(Cn3ccc4cc([N+](=O)[O-])ccc43)n[nH]c2=S)cc1`: 3.17; for `c1ccc2c(Nc3nnc(Cn4ccc5ccccc54)s3)cccc2c1`: 4.54.

In turn, `S=c1[nH]nc(Cn2ccc3ccccc32)n1-c1ccccc1` displayed a logD of 2.68.
